One compound from article PMC6207720, “Identification and antitumor activity of a novel inhibitor of the NIMA-related kinase NEK6” (Scientific Reports, 2018) can be followed below.

As a reminder, the IC50 is the concentration that gives 50% inhibition. A word on the inhibition: it is the change of the read-out against control, counted positive when it falls.

Structures are written as SMILES. Bounds are passed on as bounds.

In one assay the target is T1, NEK6 (Homo sapiens, UniProt Q9HC98).
T1 construct: purchased Carna 05-130
As to the kind of experiment: LANCE-Ultra NEK6 kinase assay. It is filed as biochemical. The conditions noted are these: 100 µM ATP. On the procedure:
The twenty-five compounds resulting from virtual screening were firstly tested for the ability to inhibit the enzymatic activity of NEK6 at a single concentration of 30 µM, using LANCE technology. Quercetin, able to inhibit a broad panel of kinase, was used as positive control of inhibition[12],[30]. This initial screening allowed the identification of two compounds determining >70% NEK6 inhibition at 30 µM, i.e. compound 8 (6-hydroxy-4-methyl-2-oxo-5-[(5-phenyl (2-furyl)) methylene] pyridine-3-carbonitrile), and 21 (6-amino-2-phenyl-5,7,9-triazatetracyclo[8.7.0.0^3,^8 0^11,^16]heptadeca-1(10),3(8),6,11,13,15 hexaene-4,17-dione) (Fig. 4). […] The possible binding mode of compound 8 in the ATP-binding site of NEK6 as well as nonbonded interactions across the complex interface are shown in Fig. 6. Compound 8 may use its phenyl ring and furyl ring to form hydrophobic Pi-alkyl interactions with Ala72 (strand β3), Ala125 (hinge region) and Val59 (strand β2) of the ATP binding site (Fig. 6B). […] This is particulary relevant when considering that C–H···O hydrogen bonds play an important role in the ligand-binding process[33]–[35].
Compounds (i.e. 1 to 25) (Molport, Riga, LV-1011, Latvia) were dissolved in DMSO 100% as 10 mM stock and stored at −20 C. Activity of the compounds as NEK6 inhibitors was tested using LANCE NEK6 Ultra Kinase Assays protocol (U-TRF #25 technical note, PerkinElmer, Monza, MB). Compounds were first tested at 30 µM and incubated with 4 nM NEK6 (Carna, Chuo-ku, Kobe, Japan, # 05-130), 50 nM ULight-p70 S6K Peptide (PerkinElmer # TRF0126) and 100 μM ATP (Sigma-Aldrich, Saint Louis, U.S.A, # A2383) at room temperature. Kinase reactions were terminated after 90 minutes by the addition of EDTA and the signal was read with the Enspire plate reader (PerkinElmer) in TR-FRET mode (excitation at 320 nm and emission at 665 nm) after 60 minutes. Inhibition of NEK6 activity was calculated as percentage with respect to the control sample (100% of activity). Quercetin was used as positive control (Molport). […] For each compound the dose inhibiting 50% of NEK6 activity (IC50) was calculated using the GraphPad Prism 5.0 Software (San Diego, CA, USA).

A further assay has as its target T2, NEK9 (Homo sapiens, UniProt Q8TD19).
T2 sequence (Q8TD19 1-979): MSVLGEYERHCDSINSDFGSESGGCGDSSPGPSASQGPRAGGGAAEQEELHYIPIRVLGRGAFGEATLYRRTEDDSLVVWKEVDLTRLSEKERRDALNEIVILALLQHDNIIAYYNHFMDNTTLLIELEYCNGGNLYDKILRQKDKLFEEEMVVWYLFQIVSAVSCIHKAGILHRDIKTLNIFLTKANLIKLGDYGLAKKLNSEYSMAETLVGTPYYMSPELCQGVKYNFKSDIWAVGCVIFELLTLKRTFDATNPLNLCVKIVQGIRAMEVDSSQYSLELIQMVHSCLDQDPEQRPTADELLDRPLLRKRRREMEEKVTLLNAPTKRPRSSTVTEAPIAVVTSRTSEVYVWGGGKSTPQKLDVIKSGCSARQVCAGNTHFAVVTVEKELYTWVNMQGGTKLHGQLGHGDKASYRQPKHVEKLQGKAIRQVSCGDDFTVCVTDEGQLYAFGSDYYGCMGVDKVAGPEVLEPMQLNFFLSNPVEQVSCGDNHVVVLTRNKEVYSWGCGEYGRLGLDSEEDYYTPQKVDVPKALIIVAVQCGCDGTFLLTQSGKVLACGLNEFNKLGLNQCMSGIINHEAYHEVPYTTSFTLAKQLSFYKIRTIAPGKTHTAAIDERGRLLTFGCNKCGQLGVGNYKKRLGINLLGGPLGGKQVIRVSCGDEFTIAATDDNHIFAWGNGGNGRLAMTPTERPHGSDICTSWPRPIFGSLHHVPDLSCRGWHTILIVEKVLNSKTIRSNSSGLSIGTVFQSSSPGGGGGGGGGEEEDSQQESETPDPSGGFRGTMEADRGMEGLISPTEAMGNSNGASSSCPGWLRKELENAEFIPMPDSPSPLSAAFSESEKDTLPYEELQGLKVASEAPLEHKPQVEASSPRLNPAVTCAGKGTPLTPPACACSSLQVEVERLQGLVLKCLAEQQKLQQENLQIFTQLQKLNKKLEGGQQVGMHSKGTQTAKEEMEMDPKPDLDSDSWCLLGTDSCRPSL
In words: Off-chip Mobility Shift Assay (MSA) profiling, NEK9. It is filed as biochemical. The following applies: ATP approximating Km. The procedure: Therefore, we decided to evaluate the selectivity of compound 8 against a panel of NEK kinases at 10 µM, using the technique of Off-chip Mobility shift assay. This concentration was chosen according to the guidelines proposed by Knight and Shokat, since the probability of off-target effects increases dramatically above 10 µM[36]. Furthermore, ATP concentration was set to approximate the Km,ATP for each kinase, so that the resulting selectivity profile directly reflects the intrinsic affinities of the inhibitor[37]. […] A major consequence of this substitution may be the redistribution of surface charges at the flexible activation loop resulting in an altered electrostatic potential and ability of NEK6 kinase to interact with other molecules.
The inhibitory activity of compounds 8 and 21 on NEK6 was also verified with MSA technique (Off-chip Mobility shift assay) (CARNA Biosciences Study ID: CBS170097, CARNA Biosciences, Kobe). […] PKR Inhibitor was used as positive control. For profiling study against NEK kinases (i.e. NEK1, NEK2, NEK6, NEK7, NEK9) (CARNA Biosciences Study ID: CBS170098), 8 was tested at 10 μM and ATP concentration approximating Km for each kinase. Assay condition for kinases are available on “Kinase profiling book” downloading by www.carnabio.com (https://www.carnabio.com/output/pdf/ProfilingProfilingBook_en.pdf).

Another assay has as its system HCT15 (colon). As to the kind of experiment: Cell-based cytotoxicity assay (ATPlite), HCT15. The following applies: Homo sapiens, HCT-15, HCT15, 72 h, NA = not active (IC50 greater than 100 µM), read-out: IC50 Values (µM ± SEM). The source says: The following human carcinoma cell lines were used for the study: MDA-MB-231 and MCF-7 (breast cancer; ATCC, Sesto San Giovanni, MI), PEO1 and COV318 (ovarian cancer; ECACC, Salisbury, UK and ATCC), HCT-15 and SW948 (colon cancer; Public Health England, Salisbury, UK and ATCC), NCI-H1975 and NCI-H1299, (lung cancer; ATCC). Cells were routinely tested free of mycoplasma (MycoAlert mycoplasma detection kit, LONZA, Rockland, ME, USA) and validated by STR (Short Tandem Repeat) DNA profiling (BMR Genomics srl, PD). Cells were grown following supplier indication, in a fully humidified atmosphere of 5% CO2/95% air. All the reagents were purchased from Sigma-Aldrich (St. Louis, MO), if not otherwise specified.
(In general: ATP-based viability assays read luminescence as a measure of living cells.)

T1 sequence (Q9HC98 whole entry): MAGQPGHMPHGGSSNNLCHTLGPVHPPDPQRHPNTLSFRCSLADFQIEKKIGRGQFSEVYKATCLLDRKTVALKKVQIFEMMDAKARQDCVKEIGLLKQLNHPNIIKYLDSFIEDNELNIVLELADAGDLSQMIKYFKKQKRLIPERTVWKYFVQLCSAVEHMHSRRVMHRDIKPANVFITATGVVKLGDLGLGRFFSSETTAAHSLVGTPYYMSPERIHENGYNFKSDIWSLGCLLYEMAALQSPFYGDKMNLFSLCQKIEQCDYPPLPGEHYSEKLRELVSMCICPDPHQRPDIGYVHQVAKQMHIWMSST

`CC1=C(C#N)C(O)=NC(=O)/C1=C\c1ccc(-c2ccccc2)o1` [Compound 8, (5Z)-2-hydroxy-4-methyl-6-oxo-5-[(5-phenylfuran-2-yl)methylidene]-5,6-dihydropyridine-3-carbonitrile]: the IC50 at NEK6 (LANCE-Ultra, mean ± SEM of 4 independent experiments) turned out to be 3.4 ± 1.2 µM; in the assay with HCT15 (colon) it was 98.5 ± 0.5 µM. In addition, the inhibition at 30 µM on NEK6 (single concentration 30 µM, LANCE) was over 70%. For the same compound, the inhibition at 10 µM on NEK9 worked out at 3.1%.
